In US8207143B2, “Methods of treating cancer and other conditions or disease states using LFMAU and LDT” (Yale University, priority 2005, dated 2012):

Tests used:
[1] = tested on: B16 melanoma; assay: Experiment 6: B16 melanoma injected subcutaneously into C57 BL6 mice; format: in vivo, mouse; settings: B16 melanoma s.c. in C57 BL6 mice; LFMAU 50 mg/kg B.I.D., 5 days pretreatment then ten days; Controls 831±474.5
Method: These experiments includes B16 melanoma which was injected subcutaneously into C57 BL6 mice which were pretreated for 5 days with LFMAU (B.I.D.) and then subsequently for ten days with LFMAU (BID.) at 50 mg/kg. with no other anti-cancer compound. This experiment yielded tumor size S.D. for the Controls of 831±474.5 and for the LFMAU treated mice of 160±150.3.

[2] = tested on: colon 38 mouse tumor; assay: Experiment 7: LDT and LFMAU alone and with 5-Fluorouracil/leucovorin on colon 38 in immuno-competent mice; format: in vivo; settings: LDT 100 mg/kg
Method: This tumor is passed from a solid tumor growing in mice. Several grams (assuming a gram per ml) are pressed through a sterile screen and suspended in a tissue culture media without phenol red or fetal calf serum (a balanced salt solution) at 2 ml/gram of tumor. Then 0.1 ml of this tumor suspension is implanted into the flank of the mouse. Ten days to two weeks after implantation (when the tumors could be measured with a caliper), unless otherwise indicated, the drug therapy was initiated.
In general, drugs are delivered at a rate of 0.1 ml per 10 grams of body weight. Every day the mice are weighed to deter the amount to be injected and as a index of toxicity.
The Tumor Volume is calculated from the measurements by the formula: length (mm)×width (mm)×width (mm)×II/6 (as a % of Day 1).
This experiment was designed to determine the effect of LDT and LFMAU alone and in combination with 5-Fluorouracil with leucovorin rescue on the growth of mouse tumor (colon 38) in immuno-competent mice. The drugs were administered to the mice according to the following schedule:
5FU/LV—150 mg/kg each i.p. once on day one
LDT—100 mg/kg p.o. b.i.d. for 5 days
LFMAU—50 mg/kg p.o. bid for 5 days
Combination groups received both treatments as per above schedules.

[3] = tested on: colon 38; assay: Experiment 8: LDT and LFMAU enhancement of oxaliplatin on colon 38 growth in C57BL6 female mice; format: in vivo, mouse
Method: This tumor is passed from a solid tumor growing in mice. Several grams (assuming a gram per ml) are pressed through a sterile screen and suspended in a tissue culture media without phenol red or fetal calf serum (a balanced salt solution) at 2 ml/gram of tumor. Then 0.1 ml of this tumor suspension is implanted into the flank of the mouse. Ten days to two weeks after implantation (when the tumors could be measured with a caliper), unless otherwise indicated, the drug therapy was initiated. In general, drugs are delivered at a rate of 0.1 ml per 10 grams of body weight. Every day the mice are weighed to deter the amount to be injected and as a index of toxicity. The Tumor Volume is calculated from the measurements by the formula: length (mm)×width (mm)×width (mm)×II/6 (as a % of Day 1). Experiment 8 tested the effects of LDT (L-dT) and LFMAU (15 mg/kg of each, same schedule as above) on the enhancement of anti-cancer drug effect (oxaliplatin 10 mg/kg i.p., once on day 1) on colon 38 growth in C57BL6 female mice.

[4] = tested on: HepG2; assay: Experiment 9: LDT enhancement of oxaliplatin on HepG2 in NCR Nu/Nu male mice; format: in vivo, human
Method: This is a human hepatocarcinoma that is grown in tissue culture as a monolayer in MEM with 10% FBS. Several flasks of cells are grown, then harvested with pancreatin and resuspended in a balanced salt solution at 10^8 per ml the 0.1 ml of this suspension is implanted into the flank of a NCR nude mouse (T cell deficient to grow human tissues). Then approximately 10 days later, when the tumor was measurable, the drug treatment started. In general, drugs are delivered at a rate of 0.1 ml per 10 grams of body weight. Every day the mice are weighed to deter the amount to be injected and as a index of toxicity. The Tumor Volume is calculated from the measurements by the formula: length (mm)×width (mm)×width (mm)×II/6 (as a % of Day 1). Experiment 9 tested the effects of LDT (15 mg/kg, same schedule as above) on the enhancement of anti-cancer drug effect (oxaliplatin 10 mg/kg i.p., once on day 1) on HepG2in immunodeficient NCR Nu/Nu male mice.

[5] = immunocompetent mice, LFMAU 50 mg/kg p.o. b.i.d. for 5 days

SMILES | tumor size S.D. [1] | duration of the effect after therapy (FIG. 7) [2, 5] | effect on growth of colon 38 mouse tumor, alone (FIG. 7) [2, 5] | effect on the anti-cancer activity of 5-FU/LV (FIG. 7) ([2]; with 5FU/LV 150 mg/kg each i.p. once on day one, LFMAU 50 mg/kg p.o. b.i.d. 5 days) | enhancement of anti-tumor effect of Oxaliplatin on colon 38 (FIG. 8) ([3]; 15 mg/kg of each nucleoside, oxaliplatin 10 mg/kg i.p. once on day 1) | duration of the effect after treatment (FIG. 8) ([3]; 15 mg/kg with oxaliplatin 10 mg/kg i.p.) | effect on HepG2 tumor, alone or in combination (FIG. 9) ([4]; LDT 15 mg/kg) | duration of the effect after treatment (FIG. 9) ([4]; LDT 15 mg/kg with oxaliplatin) | enhancement of anti-tumor effect of Oxaliplatin on HepG2 (FIG. 9) ([4]; LDT 15 mg/kg, oxaliplatin 10 mg/kg i.p. once on day 1)
Cc1cn([C@H]2O[C@@H](CO)[C@H](O)[C@H]2F)c(=O)[nH]c1=O [LFMAU, 2′-fluoro-5-methyl-β-L-arabinofuranosyluridine] | 160±150.3 | – | – | – | – | – | – | – | –
Cc1cn([C@@H]2C[C@@H](O)[C@H](CO)O2)c(=O)[nH]c1=O [LDT, β-L-2′-deoxyribofuranosylthymidine] | – | lasted well past the 5 day therapy | slows down the growth | significant (additive or synergistic) | clearly enhanced the anti-tumor effect of Oxaliplatin | lasts well after the nucleoside treatment is stopped | effective alone or in combination with oxaliplatin | lasts after the nucleoside treatment is stopped | clearly enhanced the anti-tumor effect of Oxaliplatin
